Converted amounts (≈) assume the structure as drawn. Where two headings read alike, the source gives them in different places.
Tests used:
[1] = test system: M. smegmatis (MSMG; MC2155); test: MIC by microdilution method in 7H9 broth; type: cell-based; settings: MSMG MC^2155, 72 hr
[2] = test system: M. abscessus (MAB; ATCC 700869); test: MIC by microdilution method in 7H9 broth; type: cell-based; settings: Mycobacteroides abscessus, ATCC700869; MAB 700869; read-out: MIC
[3] = test system: M. kansaii (MKN; ATCC12478 & 35775); test: MIC by microdilution method in 7H9 broth; type: cell-based, M. kansasii; settings: Mycobacterium kansasii, read-out: MIC
M. avium complex (MAC) = test: MIC by microdilution method in 7H9 broth; type: cell-based
MAC = test: Synergy by checkerboard titration (microdilution); type: cell-based, M. avium complex; settings: for MIC: Mycobacterium avium, drug alone
M. smegmatis = test: Synergy by checkerboard titration (microdilution); type: cell-based
MTB = test: Activity in acidic pH (microdilution in 7H9 broth); type: cell-based, Mycobacterium tuberculosis; settings: pH 7.0 to 5.0
Description: Activity in acidic pH. The pH in macrophage phagolysomes is ˜5.5. To be effective against intracellular organisms, anti-TB drugs should concentrate inside macrophages and be active in an acidic environment. The activity of SQ641 against MTB was investigated by microdilution method in 7H9 broth at different hydrogen ion concentrations.

[4] = test system: MTB-pSMT1 luciferase reporter strain; test: Activity against slowly replicating (hypoxic) MTB; type: cell-based; settings: Mycobacterium tuberculosis
MTB inside macrophages = test: Intracellular activity of DMSO-solubilized drug in MTB infected macrophages; type: cell-based, Mycobacterium tuberculosis; settings: for Mean RLU at Day 7: Day 0 RLU 443, Control Day 7 4251
MTB in J774A.1 cells = test: Intracellular activity of SQ641 with efflux pump blockers; type: cell-based, Mycobacterium tuberculosis; settings: 4 days exposure
MTB in macrophages = type: cell-based, Mycobacterium tuberculosis
[5] = test system: intracellular MTB (MTBp-SMT1) in J774A.1 macrophages; test: Intracellular activity of SQ641-TPGS micelles; type: cell-based, Mycobacterium tuberculosis
[6] = test system: Mycobacteria (all mycobacterial species tested); test: In vitro MIC and MBC across mycobacterial species; type: cell-based; settings: NTM tested (Table 5)

SMILES: CCCCCCCCCC(=O)O[C@@H]1[C@H](OC)[C@@H]([C@@H](O[C@H]2OC(C(=O)N[C@H]3CCC[C@@H](C)NC3=O)=C[C@H](O)[C@@H]2O)C(N)=O)O[C@H]1n1ccc(=O)[nH]c1=O [SQ641]
- MIC [1]: 2 µg/mL (≈ 2.71 µM)
- MIC ([1]; Mycolicibacterium smegmatis, MC2155|MC^2155, read-out: MIC): 2 µg/mL (≈ 2.71 µM)
- MIC [2]: 0.5 µg/mL (≈ 0.678 µM)
- MIC ([3]; ATCC 12478 / ATCC 35775, MKN ATCC35775): 0.25 µg/mL (≈ 0.339 µM)
- MIC ([3]; MKN ATCC12478): 1 µg/mL (≈ 1.36 µM)
- MIC (M. avium complex (MAC); Mycobacterium avium, 336 h, MAC isolates, 2 wk, read-out: MIC (range)): 0.125 to 2 µg/mL (≈ 0.169 to 2.71 µM)
- MIC (M. avium complex (MAC); Mycobacterium avium, MAC strain 100, read-out: MIC): 2 µg/mL (≈ 2.71 µM)
- MIC (M. avium complex (MAC); Mycobacterium avium, MAC strain 101, read-out: MIC): 0.12 µg/mL (≈ 0.163 µM)
- MIC (M. avium complex (MAC); Mycobacterium avium, MAC strain 104, read-out: MIC): 2 µg/mL (≈ 2.71 µM)
- MIC (M. avium complex (MAC); Mycobacterium avium, MAC strain 109, read-out: MIC): 0.12 µg/mL (≈ 0.163 µM)
- MIC (M. avium complex (MAC); Mycobacterium avium, MAC strain A5, read-out: MIC): 0.5 µg/mL (≈ 0.678 µM)
- MIC (M. avium complex (MAC); Mycobacterium avium, MAC strain JSH1, read-out: MIC): 2 µg/mL (≈ 2.71 µM)
- MIC (M. avium complex (MAC); Mycobacterium avium, MAC strain NIH C1-1, read-out: MIC): 0.5 µg/mL (≈ 0.678 µM)
- MIC (M. avium complex (MAC); Mycobacterium avium, MAC strain NIH C1-2, read-out: MIC): 0.25 µg/mL (≈ 0.339 µM)
- MIC (M. avium complex (MAC); Mycobacterium avium, MAC strain NIH C1-3, read-out: MIC): 2 µg/mL (≈ 2.71 µM)
- MIC (M. avium complex (MAC); Mycobacterium avium, MAC strain NIH C1-4, read-out: MIC): 0.5 µg/mL (≈ 0.678 µM)
- MIC90 (M. avium complex (MAC); Mycobacterium avium, MAC isolates, value in square brackets, read-out: MIC90): 2 µg/mL (≈ 2.71 µM)
- MIC range (M. avium complex (MAC); ten MAC isolates (Table 6)): 0.125 to 2 µg/mL
- ΣFIC (MAC; MAC A5, SQ641 + AMK): 0.75
- ΣFIC (MAC; MAC A5, SQ641 + CLA, ≦0.5 synergistic, ≧4.0 antagonistic): 0.75
- MIC Combination (MAC; MAC A5, combination SQ641 + AMK): 0.125 µg/mL
- MIC Combination (MAC; MAC A5, combination SQ641 + CLA): 0.125 µg/mL
- MIC Combination (MAC; MAC A5, combination SQ641 + EMB): 0.062 µg/mL
- ΣFIC (MAC; MAC JSH1, SQ641 + AMK): 0.625
- ΣFIC (MAC; MAC JSH1, SQ641 + CLA): 2.0
- MIC Combination (MAC; MAC JSH1, combination SQ641 + AMK): 0.125 µg/mL
- MIC Combination (MAC; MAC JSH1, combination SQ641 + CLA): 1 µg/mL
- MIC Combination (MAC; MAC JSH1, combination SQ641 + EMB): 0.25 µg/mL
- ΣFIC (MAC; MAC NIH C1-1, SQ641 + AMK): 1.0
- ΣFIC (MAC; MAC NIH C1-1, SQ641 + CLA): 2.0
- MIC Combination (MAC; MAC NIH C1-1, combination SQ641 + AMK): 0.5 µg/mL
- MIC Combination (MAC; MAC NIH C1-1, combination SQ641 + CLA): 2.0 µg/mL
- MIC Combination (MAC; MAC NIH C1-1, combination SQ641 + EMB): 0.06 µg/mL
- MIC (MAC; MAC A5): 0.25 µg/mL
- MIC (MAC; MAC JSH1): 1 µg/mL
- MIC (MAC; MAC NIH C1-1): 2 µg/mL
- ΣFIC (M. smegmatis; M. smegmatis, SQ641 + EMB): 0.375
- ΣFIC (M. smegmatis; M. smegmatis, SQ641 + INH): 0.25
- ΣFIC (M. smegmatis; M. smegmatis, SQ641 + RIF): 0.75
- ΣFIC (M. smegmatis; M. smegmatis, SQ641 + SM): 1.0
- MIC Combination (M. smegmatis; M. smegmatis, combination SQ641 + EMB): 0.25 µg/mL
- MIC Combination (M. smegmatis; M. smegmatis, combination SQ641 + INH): 0.25 µg/mL
- MIC Combination (M. smegmatis; M. smegmatis, combination SQ641 + RIF): 1.0 µg/mL
- MIC Combination (M. smegmatis; M. smegmatis, combination SQ641 + SM): 1.0 µg/mL
- Synergy with other anti-mycobacterial drugs (M. smegmatis; MSMG): synergy in combination with INH and EMB in MSMG
- MIC (M. smegmatis; Mycolicibacterium smegmatis, M. smegmatis, drug alone): 2 µg/mL
- Activity at different hydrogen ion concentrations (MTB): no loss
- MIC [4]: 0.5 µg/mL (≈ 0.678 µM)
- Mean RLU at Day 7 (MTB inside macrophages; 1 μg/ml): 1208 RLU
- Mean RLU at Day 7 (MTB inside macrophages; 2 μg/ml): 1162 RLU
- Mean RLU at Day 7 (MTB inside macrophages; 4 μg/ml): 1116 RLU
- Mean RLU at Day 7 (MTB inside macrophages; 8 μg/ml): 441 RLU
- Mean RLU at Day 7 (MTB inside macrophages; 16 μg/ml): 253 RLU
- Mean RLU at Day 7 (MTB inside macrophages; 32 μg/ml): 190 RLU
- Intracellular activity (FIG. 1) (MTB inside macrophages; 1× and 2× MIC): showed intracellular activities
- Mean RLU at Day 7 (MTB in J774A.1 cells; SQ641 1 μg/ml + CsA10 (12 μg/ml), Day 0 RLU 811, Control Day 7 3004): 342 RLU
- Mean RLU at Day 7 (MTB in J774A.1 cells; SQ641 1 μg/ml + VE10 (5 μg/ml), Day 0 RLU 425, Control Day 7 6283): 686 RLU
- Mean RLU at Day 7 (MTB in J774A.1 cells; SQ641 1 μg/ml, Day 0 RLU 425, Control Day 7 6283): 3866 RLU
- Mean RLU at Day 7 (MTB in J774A.1 cells; SQ641 1 μg/ml, Day 0 RLU 811, Control Day 7 3004): 2233 RLU
- Mean RLU at Day 7 (MTB in J774A.1 cells; SQ641 2 μg/ml + CsA10 (12 μg/ml), Day 0 RLU 811, Control Day 7 3004): 43 RLU
- Mean RLU at Day 7 (MTB in J774A.1 cells; SQ641 2 μg/ml + VE10 (5 μg/ml), Day 0 RLU 425, Control Day 7 6283): 509 RLU
- Mean RLU at Day 7 (MTB in J774A.1 cells; SQ641 2 μg/ml, Day 0 RLU 425, Control Day 7 6283): 2362 RLU
- Mean RLU at Day 7 (MTB in J774A.1 cells; SQ641 2 μg/ml, Day 0 RLU 811, Control Day 7 3004): 1361 RLU
- Mean RLU at Day 7 (MTB in J774A.1 cells; SQ641 4 μg/ml + CsA10 (12 μg/ml), Day 0 RLU 811, Control Day 7 3004): 28 RLU
- Mean RLU at Day 7 (MTB in J774A.1 cells; SQ641 4 μg/ml + VE10 (5 μg/ml), Day 0 RLU 425, Control Day 7 6283): 368 RLU
- Mean RLU at Day 7 (MTB in J774A.1 cells; SQ641 4 μg/ml, Day 0 RLU 425, Control Day 7 6283): 2329 RLU
- Mean RLU at Day 7 (MTB in J774A.1 cells; SQ641 4 μg/ml, Day 0 RLU 811, Control Day 7 3004): 1476 RLU
- Mean RLU at Day 7 (MTB in J774A.1 cells; SQ641 8 μg/ml + CsA10 (12 μg/ml), Day 0 RLU 811, Control Day 7 3004): 15 RLU
- Mean RLU at Day 7 (MTB in J774A.1 cells; SQ641 8 μg/ml + VE10 (5 μg/ml), Day 0 RLU 425, Control Day 7 6283): 44 RLU
- Mean RLU at Day 7 (MTB in J774A.1 cells; SQ641 8 μg/ml, Day 0 RLU 425, Control Day 7 6283): 1392 RLU
- Mean RLU at Day 7 (MTB in J774A.1 cells; SQ641 8 μg/ml, Day 0 RLU 811, Control Day 7 3004): 850 RLU
- Mean RLU at Day 7 (MTB in J774A.1 cells; SQ641 16 μg/ml + CsA10 (12 μg/ml), Day 0 RLU 811, Control Day 7 3004): 14 RLU
- Mean RLU at Day 7 (MTB in J774A.1 cells; SQ641 16 μg/ml + VE10 (5 μg/ml), Day 0 RLU 425, Control Day 7 6283): 18 RLU
- Mean RLU at Day 7 (MTB in J774A.1 cells; SQ641 16 μg/ml, Day 0 RLU 425, Control Day 7 6283): 654 RLU
- Mean RLU at Day 7 (MTB in J774A.1 cells; SQ641 16 μg/ml, Day 0 RLU 811, Control Day 7 3004): 346 RLU
- Mean RLU at Day 7 (MTB in J774A.1 cells; SQ641 32 μg/ml + CsA10 (12 μg/ml), Day 0 RLU 811, Control Day 7 3004): 11 RLU
- Mean RLU at Day 7 (MTB in J774A.1 cells; SQ641 32 μg/ml + VE10 (5 μg/ml), Day 0 RLU 425, Control Day 7 6283): 12 RLU
- Mean RLU at Day 7 (MTB in J774A.1 cells; SQ641 32 μg/ml, Day 0 RLU 425, Control Day 7 6283): 141 RLU
- Mean RLU at Day 7 (MTB in J774A.1 cells; SQ641 32 μg/ml, Day 0 RLU 811, Control Day 7 3004): 113 RLU
- RLU lower than the drug dissolved in DMSO (MTB in macrophages): about 50%
- Mean RLU on day 7 (MTB in macrophages; SQ641 2 μg/ml, day 0 RLU 1397, Control day 7 9075): 3535 RLU
- Mean RLU at Day 7 ([5]; Expt 1, one day drug exposure, 5 μg/ml, Day 0 RLU 104, CONTROL Day 7 906): 95 RLU
- Mean RLU at Day 7 ([5]; Expt 1, one day drug exposure, 10 μg/ml, Day 0 RLU 104, CONTROL Day 7 906): 64 RLU
- Mean RLU at Day 7 ([5]; Expt 1, one day drug exposure, 20 μg/ml, Day 0 RLU 104, CONTROL Day 7 906): 47 RLU
- Mean RLU at Day 7 ([5]; Expt 2, four days drug exposure, 4 μg/ml, Day 0 RLU 205, CONTROL Day 7 491): 62 RLU
- Mean RLU at Day 7 ([5]; Expt 2, four days drug exposure, 8 μg/ml, Day 0 RLU 205, CONTROL Day 7 491): 32 RLU
- Mean RLU at Day 7 ([5]; Expt 2, four days drug exposure, 16 μg/ml, Day 0 RLU 205, CONTROL Day 7 491): 17 RLU
- Mean RLU at Day 7 ([5]; Expt 2, four days drug exposure, 32 μg/ml, Day 0 RLU 205, CONTROL Day 7 491): 8 RLU
- MIC90 [6]: 2 µg/mL (≈ 2.71 µM)
